# Laboratory results published in PubChem BioAssay (NCI).
#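 48-hour exposure; five concentrations; linearly interpolated endpoints. Definition used: TGI = concentration required for complete inhibition of growth.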
# Assays:
# Assay in all cases: growth of human tumour cells (NCI), 48 h
# [1] = tested on: SF-539 CNS
# [2] = tested on: DMS 273 small cell lung
# [3] = tested on: NCI-H522 lung
# [4] = tested on: MOLT-4 leukemia
# [5] = tested on: RXF 393 renal
# [6] = tested on: LOX IMVI melanoma
# [7] = tested on: K-562 leukemia
# [8] = tested on: OVCAR-8 ovarian
# [9] = tested on: SK-MEL-28 melanoma
# [10] = tested on: ACHN renal
# [11] = tested on: UACC-62 melanoma
# [12] = tested on: NCI-H460 lung
# [13] = tested on: SNB-75 CNS
# [14] = tested on: 786-0 renal
# [15] = tested on: U251 CNS
SMILES,TGI [1],TGI [2],TGI [3],TGI [4],TGI [5],TGI [6],TGI [7],TGI [8],TGI [9],TGI [10],TGI [11],TGI [12],TGI [13],TGI [14],TGI [15]
O=c1[nH]c(=O)n(C2CC(O)C(CO)O2)cc1C(F)(C(F)(F)F)C(F)(F)F (stereo unspecified),> 100 µM,> 100 µM,> 100 µM,> 100 µM,> 100 µM,> 100 µM,> 100 µM,> 100 µM,> 100 µM,> 100 µM,> 100 µM,> 100 µM,> 100 µM,> 100 µM,> 100 µM
CN/C=C(\C(=O)c1ccc(OC)c(OC)c1)c1ccc(OC)cc1,14.1 µM,21.7 µM,36 µM,62 µM,33.2 µM,29.8 µM,27.1 µM,30.4 µM,39.7 µM,75.1 µM,49.6 µM,63.2 µM,> 100 µM,23.9 µM,21.3 µM
COc1ccc(N2C(=O)C3c4[nH]c5ccccc5c4C4CC(C)(C)CC(C)(C)C4C3C2=O)cc1 (stereo unspecified),27.2 µM,23.8 µM,38.1 µM,36.6 µM,33.1 µM,,> 100 µM,11.1 µM,27.7 µM,31.9 µM,27.6 µM,,34.5 µM,28.3 µM,31.2 µM
CC(=O)OCC1OC(OC2C(COC(C)=O)OC(Sc3ccccc3C)C(OC(C)=O)C2OC(C)=O)C(OC(C)=O)C(OC(C)=O)C1OC(C)=O (stereo unspecified),> 100 µM,> 100 µM,> 100 µM,> 100 µM,> 100 µM,,> 100 µM,,> 100 µM,> 100 µM,> 100 µM,> 100 µM,> 100 µM,> 100 µM,> 100 µM
COc1ccc(C2ON(c3ccccc3)CC=C2C)cc1 (stereo unspecified),> 100 µM,> 100 µM,99.5 µM,> 100 µM,> 100 µM,> 100 µM,> 100 µM,> 100 µM,> 100 µM,> 100 µM,> 100 µM,> 100 µM,> 100 µM,> 100 µM,> 100 µM
NS(=O)(=O)c1ccc(Nc2c3ccccc3nc3c(C(=O)N4CCN(CCO)CC4)cccc23)cc1,> 100 µM,> 100 µM,> 100 µM,> 100 µM,> 100 µM,> 100 µM,> 100 µM,> 100 µM,> 100 µM,> 100 µM,> 100 µM,> 100 µM,> 100 µM,> 100 µM,> 100 µM
CC(c1ccc2c(c1)CCC1C2CC2OC23CC=CC(=O)[C@]13C)C1C[C@]2(C)O[C@]2(C)[C@H](O)O1 (stereo partly specified),> 100 µM,> 100 µM,> 100 µM,> 100 µM,50.5 µM,> 100 µM,> 100 µM,> 100 µM,> 100 µM,> 100 µM,> 100 µM,> 100 µM,> 100 µM,> 100 µM,55.3 µM
c1cc2nnsc2s1,> 100 µM,> 100 µM,> 100 µM,> 100 µM,,> 100 µM,> 100 µM,> 100 µM,> 100 µM,> 100 µM,> 100 µM,> 100 µM,> 100 µM,> 100 µM,> 100 µM
O=C1Cc2nc(CO)c(CO)c(CO)c2CO1,> 100 µM,> 100 µM,> 100 µM,,,> 100 µM,> 100 µM,> 100 µM,> 100 µM,> 100 µM,> 100 µM,> 100 µM,> 100 µM,> 100 µM,> 100 µM
CC(=O)OCCOCNC(=S)N/N=C/c1cc([N+](=O)[O-])ccc1O,> 100 µM,> 100 µM,> 100 µM,,> 100 µM,> 100 µM,> 100 µM,> 100 µM,> 100 µM,> 100 µM,> 100 µM,> 100 µM,> 100 µM,> 100 µM,> 100 µM
CCOc1cn(C2OC(CO)C(O)C2O)c(=O)[nH]c1=O (stereo unspecified),,> 100 µM,> 100 µM,> 100 µM,> 100 µM,> 100 µM,> 100 µM,> 100 µM,> 100 µM,> 100 µM,> 100 µM,> 100 µM,> 100 µM,> 100 µM,43.7 µM
CC(=O)Nc1ccc(-c2nnc(SCC(=O)Nc3cccc(Cl)c3)o2)cc1,34.8 µM,62.4 µM,23.5 µM,51.8 µM,31.4 µM,26.8 µM,> 100 µM,> 100 µM,33.8 µM,28.9 µM,33.9 µM,51.2 µM,71.9 µM,23.7 µM,23.2 µM
